# Test results published in patent EP4755891A1, “ARF1 INHIBITOR AND USE THEREOF” (AOBIO PHARMACEUTICAL CO., LTD., priority 2023, dated 2025).
# Like-named read-outs stand apart in the source and are kept apart here.
# What was measured:
# [1] = Plasma stability, mouse plasma; assay type: in vitro ADME; conditions: 2.0 µM, 37°C
# Description: (§1) At 37°C, 2.0 µM of the compound was co-incubated with plasma samples from five species (mouse, rat, dog, cynomolgus monkey, human) for 120 minutes. The concentration of the compound in the samples was detected by the liquid chromatography-tandem mass spectrometry (LC-MS/MS) method, and the half-life (T1/2) was calculated.
# Caco-2 cells = experiment: Permeability in Caco-2 cells; assay type: in vitro ADME; conditions: Caco-2, conclusion in words
# Description: (§2) The permeability of Compound 9 was evaluated using Caco-2 cells. The transport buffer used in this study was HBSS with 10.0 mM HEPES, pH 7.40±0.05. The test concentration was 2.00 µM, and a bidirectional test was performed on the test compound. Digoxin was repeatedly tested bidirectionally at 10.0 µM, while nadolol and metoprolol were repeatedly tested in the A-B direction at 2.00 µM. The final DMSO concentration was adjusted to less than 1%. The mixture was incubated at 37.0°C, 5% CO2, saturated humidity, without shaking in a CO2 incubator for 2 hours. All samples were mixed with acetonitrile containing internal standards and centrifuged at 3220 × g for 10 mins. The concentrations of the test compound and reference compound in the initial solution, donor solution, and acceptor solution were determined by the LC-MS/MS, using the analyte/internal standard peak area ratio.
# [2] = Permeability in Caco-2 cells; assay type: in vitro ADME; conditions: human, Caco-2, pH 7.4, 2.00 µM
# Description: as §2
# [3] = Plasma stability, human plasma; assay type: in vitro ADME; conditions: 2.0 µM, 37°C
# Description: as §1
# [4] = Pharmacokinetic study in SD rats; assay type: in vivo
# Description: In this experiment, six male SD rats were divided into two groups based on similar body weight. These rats were administered Compound 9 via single intravenous injection and oral gavage, respectively. The intravenous injection dose was 2 mg/kg, while the oral gavage dose was 10 mg/kg. The vehicle for both intravenous and oral administration was a clear solution of 5% DMSO + 5% PEG400 + 90% water. The concentration for intravenous injection was 0.4 mg/mL, and for oral gavage was 1 mg/mL. K2-EDTA was used as the anticoagulant. The blood sampling time points were all at: 0.083, 0.25, 0.5, 1, 3, 6, 12, and 24 hours.
# Blood samples of 0.02 mL were collected from the saphenous vein of all experimental animals, and the actual blood collection time was recorded. In this experiment, the deviation of the blood sampling time from the theoretical sampling time complied with the regulations (points within 1 hour after administration were within ±1 minute, and all others were within 5% of the theoretical time). After blood sample collection, the blood samples were immediately transferred to labeled centrifuge tubes containing K2-EDTA (0.5 M). The samples were then centrifuged (3000 g, 4°C, 15 minutes), and the plasma was collected. The plasma was transferred to a pre-cooled centrifuge tube, flash-frozen in dry ice, and stored in an ultra-low temperature freezer at -60°C or less until LC-MS/MS analysis was performed.
# CT26 colon cancer = experiment: Inhibition of CT26 colon cancer in BALB/c mice (Example 47, 5 mg/kg); assay type: in vivo; conditions: gavaged daily, two consecutive weeks
# Description: In this example, the inhibitory effects of Compounds 9, 11-3, 25, 26, 27, and DU102 on colon cancer growth were tested.
# Murine CT26 cells were inoculated into the left abdomen of 6-week-old male mice at a dose of 5×10^5 cells per mouse. Approximately 7 days later, the mice were randomly divided into two groups: the control group or the compound treatment group. They were gavaged daily with either the vehicle control (ddH2O or 5% DMSO in corn oil) or 5 mg/kg of Compounds 9, 11-3, 25, 26, or 27 (dissolved in the corresponding vehicle) for two consecutive weeks. Tumor diameters were measured every 2-3 days using a digital caliper (ULINE, Cat^# H-7352), and the tumor volume was calculated using the formula ½ × longitudinal diameter (length) × maximum transverse diameter (width). When the maximum tumor volume reached 2000 mm^3, the mice were euthanized.
# NF-κB signaling pathway = experiment: Activation of NF-κB signaling pathway (phosphorylated P65, Western blot); assay type: cell-based, Murine; conditions: CT26 cells; FIG. 6
# Description: In this example, Compounds 3 and 9 synthesized in the above preparation examples were tested for their ability to activate the NF-κB signaling pathway, as indicated by an increase of phosphorylated P65. GCA, a known Arf1 inhibitor, was used as a positive control.
# In CT26 cells treated with DMSO, GCA, Compound 3, or Compound 9, the relevant protein levels were evaluated by Western blot analysis as previously described (Wang et al., 2020).
# [5] = test system: Drosophila orthotopic tumors; experiment: Inhibition of orthotopic tumor growth in Drosophila; assay type: in vivo; conditions: 5 µM in food, 4 days; Ras^V12-PMML clones; FIG. 7
# Description: In this example, the inhibitory effects of Compounds 3 and 9 synthesized in the above preparation examples on the growth of Drosophila orthotopic tumors were tested. As previously described, renal stem cell tumor clusters were induced by expressing Ras in Drosophila renal stem cell (Ras^V12-PMML) clones (Singh et al., 2016). The Drosophila carrying Ras^V12-PMML clones were cultured with normal food at room temperature for 4 days to allow tumor growth. They were then switched to food containing the indicated drugs for an additional 4 days, followed by feeding the Drosophila carrying Ras^V12-PMML with normal food containing DMSO or 5 µM Compound 3 or Compound 9. In the indicated groups, the number of esg>GFP + tumor cells per 5×10^3 µm^2 area was quantified to characterize tumor size.
# CCL5 = experiment: Upregulation of chemokine CCL5 expression (quantitative RT-PCR); assay type: cell-based, Murine; conditions: CT26 cells; FIG. 5
# Description: In this example, the upregulation of chemokine CCL5 expression induced by the treatment of Compounds 3 and 9 synthesized in the above preparation examples was tested. Quantitative RT-PCR was used to measure the expression level of chemokine CCL5 in CT26 cells treated with DMSO, Compound 3, or Compound 9.
structure (smiles),measurement,setting,value
"Cc1csc2ncnc(Nc3ccc4c(c3)ncn4C)c12 [Compound 9, 5-Methyl-N-(1-methyl-1H-benzo[d]imidazol-5-yl)thieno[2,3-d]pyrimidin-4-amine]",remaining amount in plasma,[1]; time point 0 min,100.0%
same,remaining amount in plasma,[1]; time point 10 min,99.3%
same,remaining amount in plasma,[1]; time point 30 min,98.6%
same,remaining amount in plasma,[1]; time point 60 min,104.1%
same,remaining amount in plasma,[1]; time point 120 min,96.5%
same,cellular permeability,Caco-2 cells,high cellular permeability
same,substrate of the efflux transporter P-gp,Caco-2 cells,unlikely to be a substrate of the efflux transporter P-gp
same,"Papp A→B at 2 h, 2 µM","[2]; 2 hours, pH 7.40±0.05",29 ×10⁻⁶ cm/s
same,"Papp B→A at 2 h, 2 µM","[2]; 2 hours, pH 7.40±0.05",20.7 ×10⁻⁶ cm/s
same,"efflux ratio at 2 h, 2 µM","[2]; bidirectional, read-out: Efflux Ratio (ER)",0.714
same,remaining amount in plasma,[3]; time point 0 min,100.0%
same,remaining amount in plasma,[3]; time point 10 min,99.8%
same,remaining amount in plasma,[3]; time point 30 min,108.9%
same,remaining amount in plasma,[3]; time point 60 min,113.3%
same,remaining amount in plasma,[3]; time point 120 min,104.6%
same,absorption in rats,[4]; conclusion in words,rapidly absorbed
same,apparent volume of distribution,[4]; conclusion in words,moderate apparent volume of distribution
same,oral bioavailability,[4]; conclusion in words,high oral bioavailability
same,Vd,"[4]; rat, plasma, Intravenous Injection, 2 mg/kg, male SD rats, read-out: Apparent Volume of Distribution Vdss",0.647 L/kg
same,clearance,"[4]; rat, plasma, Intravenous Injection, 2 mg/kg, male SD rats, read-out: Clearance Cl",39.8 mL/min/kg
same,half-life,"[4]; rat, plasma, Intravenous Injection, 2 mg/kg, male SD rats, read-out: Half-Life T1/2 (converted)",11 min
same,bioavailability,"[4]; rat, plasma, Oral Gavage, 10 mg/kg vs intravenous 2 mg/kg, male SD rats, read-out: Bioavailability F",164%
same,AUC(0-t),"[4]; rat, plasma, Oral Gavage, 10 mg/kg, male SD rats, read-out: Exposure AUC0-last",6840 ng·h/mL
same,half-life,"[4]; rat, plasma, Oral Gavage, 10 mg/kg, male SD rats, read-out: Half-life T1/2 (converted)",34.2 min
same,Cmax,"[4]; rat, plasma, Oral Gavage, 10 mg/kg, male SD rats, read-out: Maximum Concentration Cmax",4770 ng/mL
same,size of murine colon cancer,CT26 colon cancer; FIG. 9A,size of murine colon cancer inhibited
same,weight of murine colon cancer,CT26 colon cancer; FIG. 9B,weight of murine colon cancer reduced significantly
same,inhibition of CT26 colon cancer,CT26 colon cancer; FIG. 9 and FIG. 10,effectively inhibit CT26 colon cancer
same,phosphorylation level of P65,NF-κB signaling pathway,increase the phosphorylation level of P65
same,orthotopic tumor growth in Drosophila,[5],effectively inhibit orthotopic tumor growth
same,expression of the chemokine CCL5,CCL5,effectively promote the expression
